Read-outs that look alike come from different tables or passages of the source.
Tested on: H5V cells
Experiment: Phototoxicity assay (PDT efficacy at two incubation times), neutral red survival
Assay type: cell-based, mouse
Conditions: for IC50: then 10 min illumination, 12 J/cm^2
Description: H5V cells (40×10^3/well) were cultured in 96-well plates for 24 h to ˜80% confluence. To determine phototoxicity, the culture medium was replaced with 100 μl/well medium, in the absence or presence of 10^−8 to 10^−6 M sensitizer, and incubated in the dark for 15 min or 3 h in the culture incubator. The plates (PDT group) were then placed in the light field at room temperature and illuminated from the bottom for 10 min (800>λ>650 nm, 12 J/cm^2). After illumination, the medium was changed to fresh culture medium. The cultures were then placed in the culture incubator and cell survival was determined 24 h later, using the neutral red survival assay described below.
Following 24 h post PDT the culture medium in the wells was replaced with 100 μl fresh medium containing 40 μg/ml neutral red. The plate was incubated for 1.5 h in a dark culture incubator. The medium was aspirated and the cells washed with 100 μl of solution containing 1% CaCl2 and 0.5% formaldehyde, which removes the unincorporated dye and fixes the cells to the substratum. The dye was then extracted from the cells into the supernatant upon addition of 100 μl 1% glacial acetic acid in 50% ethanol. After 1-2 min at room temperature, the optical density of the wells was determined in a microplate spectrophotometer using a 570 nm filter. After subtraction of assay blanks, net optical density was computed as the average value of triplicate determinations. Cell survival was calculated as the percent of the dye accumulated in the untreated control. To determine cell survival data was plotted against sensitizer concentration. These curves were then used to calculated LD50 values.
Following synthesis, the compounds described in the Examples 23 to 75 above were purified, divided into equal aliquots and lyophilized for storage (desiccated at −20° C.). The exact material content was determined by HPLC-diode array detection, and the PDT efficacy was evaluated at two incubation times as described in the experimental section.

[1] = 15 min incubation in the dark, read-out: IC50 15 min
[2] = 3 h incubation in the dark, read-out: IC50 3 hours

SMILES | IC50 [1] | IC50 [2] | PDT activity relative to compound 24 (at both incubation times)
CC[C@H]1C2=NC(=Cc3c(C(C)=O)c(C)c4[n]3[Pd][n]3c(c(C)c(C(=O)NCCN)c3=C(CC(=O)OC)C3=NC(=C4)[C@@H](C)[C@@H]3CCC(=O)NCCN)=C2)[C@@H]1C [Compound 10, Palladium 3^1-oxo-15-methoxycarbonylmethyl-Rhodobacteriochlorin-13^1, 17^3-di(2-aminoethyl)amide] | 740 nM | 240 nM | 
CC[C@H]1C2=NC(=Cc3c(C(C)=O)c(C)c4[n]3[Pd][n]3c(c(C)c(C(=O)NCCN(C)C)c3=C(CC(=O)OC)C3=NC(=C4)[C@@H](C)[C@@H]3CCC(=O)O)=C2)[C@@H]1C [Compound 25, Palladium 3^1-oxo-15-methoxycarbonylmethyl-Rhodobacteriochlorin-13^1-(2-N^2-dimethylaminoethyl)amide] | 1100 nM | 750 nM | 
CC[C@H]1C2=NC(=Cc3c(C(C)=O)c(C)c4[n]3[Pd][n]3c(c(C)c(C(=O)NCCCN(C)C)c3=C(CC(=O)OC)C3=NC(=C4)[C@@H](C)[C@@H]3CCC(=O)O)=C2)[C@@H]1C [Compound 26, Palladium 3^1-oxo-15-methoxycarbonylmethyl-Rhodobacteriochlorin-13^1-(3-N^2-dimethylaminopropyl)amide] | 1000 nM | 450 nM | 
CC[C@H]1C2=NC(=Cc3c(C(C)=O)c(C)c4[n]3[Pd][n]3c(c(C)c(C(=O)NCCNCCN)c3=C(CC(=O)OC)C3=NC(=C4)[C@@H](C)[C@@H]3CCC(=O)O)=C2)[C@@H]1C [Compound 27, Palladium 3^1-oxo-15-methoxycarbonylmethyl-Rhodobacteriochlorin-13^1-(2-[(2-aminoethyl)amino]ethyl)amide] | 1500 nM | 450 nM | 
CC[C@H]1C2=NC(=Cc3c(C(C)=O)c(C)c4[n]3[Pd][n]3c(c(C)c(C(=O)NCCN(CCN)CCN)c3=C(CC(=O)OC)C3=NC(=C4)[C@@H](C)[C@@H]3CCC(=O)O)=C2)[C@@H]1C [Compound 28, Palladium 3^1-oxo-15-methoxycarbonylmethyl-Rhodobacteriochlorin-13^1-([2-bis(2-aminoethyl)amino]ethyl)amide] | 1300 nM | 380 nM | 
CC[C@H]1C2=NC(=Cc3c(C(C)=O)c(C)c4[n]3[Pd][n]3c(c(C)c(C(=O)NCCN5CCOCC5)c3=C(CC(=O)OC)C3=NC(=C4)[C@@H](C)[C@@H]3CCC(=O)O)=C2)[C@@H]1C [Compound 29, Palladium 3^1-oxo-15-methoxycarbonylmethyl-Rhodobacteriochlorin-13^1-(2-morpholino-N-ethyl)amide] | 1900 nM | 1900 nM | 
CC[C@H]1C2=NC(=Cc3c(C(C)=O)c(C)c4[n]3[Pd][n]3c(c(C)c(C(=O)NCCN5CCNCC5)c3=C(CC(=O)OC)C3=NC(=C4)[C@@H](C)[C@@H]3CCC(=O)O)=C2)[C@@H]1C [Compound 30, Palladium 3^1-oxo-15-methoxycarbonylmethyl-Rhodobacteriochlorin-13^1-(2-piperazino-N-ethyl)amide] | 1700 nM | 610 nM | 
CC[C@H]1C2=NC(=Cc3c(C(C)=O)c(C)c4[n]3[Pd][n]3c(c(C)c(C(=O)NCCNCCN(CC)CC)c3=C(CC(=O)OC)C3=NC(=C4)[C@@H](C)[C@@H]3CCC(=O)O)=C2)[C@@H]1C [Compound 31, Palladium 3^1-oxo-15-methoxycarbonylmethyl-Rhodobacteriochlorin-13^1-(2-[(2-N^2-diethylaminoethyl)amino]ethyl)amide] | 2600 nM | 600 nM | 
CC[C@H]1C2=NC(=Cc3c(C(C)=O)c(C)c4[n]3[Pd][n]3c(c(C)c(C(=O)NCCCNCCCN)c3=C(CC(=O)OC)C3=NC(=C4)[C@@H](C)[C@@H]3CCC(=O)O)=C2)[C@@H]1C [Compound 32, Palladium 3^1-oxo-15-methoxycarbonylmethyl-Rhodobacteriochlorin-13^1-(3-[(3-aminopropyl)amino]propyl)amide] | 600 nM | 250 nM | 4-5 times
CC(=O)[O-].CC(=O)[O-].CC[C@H]1C2=NC(=Cc3c(C(C)=O)c(C)c4[n]3[Pd][n]3c(c(C)c(C(=O)NCC[N+](C)(C)C)c3=C(CC(=O)OC)C3=NC(=C4)[C@@H](C)[C@@H]3CCC(=O)NCC[N+](C)(C)C)=C2)[C@@H]1C [Compound 33, Palladium 3^1-oxo-15-methoxycarbonylmethyl-Rhodobacteriochlorin-13^1, 17^3-di(2-N^3-trimethylammoniumethyl)amide diacetate salt] | 750 nM | 450 nM | 
CC[C@H]1C2=NC(=Cc3c(C(C)=O)c(C)c4[n]3[Pd][n]3c(c(C)c(C(=O)NCCCN)c3=C(CC(=O)OC)C3=NC(=C4)[C@@H](C)[C@@H]3CCC(=O)NCCCN)=C2)[C@@H]1C [Compound 34, Palladium 3^1-oxo-15-methoxycarbonylmethyl-Rhodobacteriochlorin-13^1, 17^3-di(3-aminopropyl)amide] | 480 nM | 200 nM | 
CC[C@H]1C2=NC(=Cc3c(C(C)=O)c(C)c4[n]3[Pd][n]3c(c(C)c(C(=O)NCCCCN)c3=C(CC(=O)OC)C3=NC(=C4)[C@@H](C)[C@@H]3CCC(=O)NCCCCN)=C2)[C@@H]1C [Compound 35, Palladium 3^1-oxo-15-methoxycarbonylmethyl-Rhodobacteriochlorin-13^1, 17^3-di(4-aminobutyl)amide] | 1230 nM | 210 nM | 
CC[C@H]1C2=NC(=Cc3c(C(C)=O)c(C)c4[n]3[Pd][n]3c(c(C)c(C(=O)NCCN(C)C)c3=C(CC(=O)OC)C3=NC(=C4)[C@@H](C)[C@@H]3CCC(=O)NCCN(C)C)=C2)[C@@H]1C [Compound 36, Palladium 3^1-oxo-15-methoxycarbonylmethyl-Rhodobacteriochlorin-13^1, 17^3-di(2-N^2-dimethylaminoethyl)amide] | 370 nM | 150 nM | 
CC[C@H]1C2=NC(=Cc3c(C(C)=O)c(C)c4[n]3[Pd][n]3c(c(C)c(C(=O)NCCCN(C)C)c3=C(CC(=O)OC)C3=NC(=C4)[C@@H](C)[C@@H]3CCC(=O)NCCCN(C)C)=C2)[C@@H]1C [Compound 37, Palladium 3^1-oxo-15-methoxycarbonylmethyl-Rhodobacteriochlorin-13^1, 17^3-di(3-N^2-dimethylaminopropyl)amide] | 750 nM | 210 nM | 
CC[C@H]1C2=NC(=Cc3c(C(C)=O)c(C)c4[n]3[Pd][n]3c(c(C)c(C(=O)NCCNCCN)c3=C(CC(=O)OC)C3=NC(=C4)[C@@H](C)[C@@H]3CCC(=O)NCCNCCN)=C2)[C@@H]1C [Compound 38, Palladium 3^1-oxo-15-methoxycarbonylmethyl-Rhodobacteriochlorin-13^1, 17^3-di-(2-[(2-aminoethyl)amino]ethyl)amide] | 440 nM | 160 nM | 
CCC1C2=Cc3c(C)c(C(=O)NCCNCCN(CC)CC)c4[n]3[Pd][n]3c(c(C)c(C(C)=O)c3=CC(=N2)C1C)=CC1=NC(=C4CC(=O)OC)C(CCC(=O)NCCNCCN(CC)CC)C1C (centres unmarked) [Compound 39, Palladium 3^1-oxo-15-methoxycarbonylmethyl-Rhodobacteriochlorin-13^1,17^3-di-(2-[(2-N^2-diethylaminoethyl)amino]ethyl) amide] | 2440 nM | 1100 nM | 
CC[C@H]1C2=NC(=Cc3c(C(C)=O)c(C)c4[n]3[Pd][n]3c(c(C)c(C(=O)NCCN5CCOCC5)c3=C(CC(=O)OC)C3=NC(=C4)[C@@H](C)[C@@H]3CCC(=O)NCCN3CCOCC3)=C2)[C@@H]1C [Compound 40, Palladium 3^1-oxo-15-methoxycarbonylmethyl-Rhodobacteriochlorin-13^1, 17^3-di(2-morpholino-N-ethyl)amide] | 700 nM | 350 nM | 
CCC1c2cc3[n-]c(c(CC(=O)OC)c4nc(cc5[n-]c(cc(n2)C1C)c(C(C)=O)c5C)C(C)C4CCC(=O)NCCN1CCNCC1)c(C(=O)NCCN1CCNCC1)c3C.[Pd+2] (centres unmarked) [Compound 41, Palladium 3^1-oxo-15-methoxycarbonylmethyl-Rhodobacteriochlorin-13^1, 17^3-di(2-piperazino-N-ethyl)amide] | 1130 nM | 460 nM | 
CCC1c2cc3[n-]c(c(CC(=O)OC)c4nc(cc5[n-]c(cc(n2)C1C)c(C(C)=O)c5C)C(C)C4CCC(=O)NCCCNCCCN)c(C(=O)NCCCNCCCN)c3C.[Pd+2] (centres unmarked) [Compound 42, Palladium 3^1-oxo-15-methoxycarbonylmethyl-Rhodobacteriochlorin-13^1, 17^3-di-(3-[(3-aminopropyl)amino]propyl)amide] | 680 nM | 280 nM | 
CC[C@H]1C2=NC(=Cc3c(C(C)=O)c(C)c4[n]3[Pd][n]3c(c(C)c(C(=O)NCCN(CCN)CCN)c3=C(CC(=O)OC)C3=NC(=C4)[C@@H](C)[C@@H]3CCC(=O)NCCN(CCN)CCN)=C2)[C@@H]1C [Compound 43, Palladium 3^1-oxo-15-methoxycarbonylmethyl-Rhodobacteriochlorin-13^1,17^3-di([2-bis(2-aminoethyl)amino]ethyl)amide] | 600 nM | 180 nM | 
